Results: patent US5602106A, “16-membered macrolide derivatives” (priority 1993, dated 1997)
≈ marks a conversion by molar mass, not a printed value. Entries after “also recorded” stand apart in the source; their conditions may differ.

What was measured:
[1] = tested on: certain bacteria, for example, a species of acid-fast bacteria; conditions: Chemistry Letters, 769 (1977); cited from earlier work
test strains = assay: Antimicrobial activity in vitro, test strains overall; format: cell-based
Summary of the method: (§1)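 Agar dilution; inoculum ~10^6 CFU/ml, 5 μl spot; medium SDA + 5% horse blood; 37° C., 20 h. Preculture: STB broth (S. aureus, S. epidermidis); blood agar plate (B. catarrhalis, H. influenzae).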

Enterococcus feacalis = assay: Antimicrobial activity in vitro; format: cell-based; conditions: vs clarithromycin
Description: (§2) The effect of the first aspect of the present invention resides in the creation of a novel and useful 16-membered macrolide derivative. Antimicrobial activities of the compounds of the present invention were determined by measuring minimum inhibitory concentration (MIC). Minimum inhibitory concentration was determined by the agar plate dilution method in the following manner.
(§3) Test strains were subjected to seed culture using Sensitivity test broth (STB, Nissui Pharmaceutical) except that the strains belonging to the genus Streptococcus, Branhamella and Haemophilus were cultured on blood agar plate. A 5 μl portion of cell suspension of the test strains having about 10^6 CFU/ml was inoculated into Sensitivity disk agar (SDA, Nissui Pharmaceutical) supplemented with 5% horse blood and incubated at 37° C. for 20 hours. Then, MIC was measured. […] Antimicrobial activities in vitro of the compounds (1) and (2) are shown in Table 1, and those of the compounds (3) and (4) in Table 3.

[2] = tested on: drug-resistant strain of Staphylococcus; assay: Antimicrobial activity in vitro; format: cell-based; conditions: vs clarithromycin
Description: as §2, §3

Streptococcus pneumoniae = assay: Antimicrobial activity in vitro; format: cell-based; conditions: compared with MDM and LM-A7
Description: as §2, §3

Branhamella catarrhalis = assay: Antimicrobial activity in vitro; format: cell-based; conditions: vs clarithromycin
Description: as §2, §3

Haemophilus influenzae = assay: Antimicrobial activity in vitro; format: cell-based; conditions: vs clarithromycin
Description: as §2, §3

[3] = tested on: clinically important Gram-positive bacteria; assay: Antimicrobial activity / growth inhibition; format: cell-based
Summary of the method: as §1

S. aureus MS15027 = assay: MIC, agar plate dilution method; format: cell-based; conditions: Staphylococcus aureus, MS15027, 20 h, read-out: Antimicrobial activity (MIC), 37° C., 20 hours, SDA with 5% horse blood
Summary of the method: as §1

S. pneumoniae IP692 = assay: MIC, agar plate dilution method; format: cell-based; conditions: Streptococcus pneumoniae, IP692, 20 h, 37° C., 20 hours, SDA with 5% horse blood; read-out: Antimicrobial activity (MIC)
Summary of the method: (§4)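 Minimum inhibitory concentration by agar plate dilution on disk agar with 5% horse blood; 5 μl of roughly 10^6 CFU/ml inoculated, 37° C. for 20 h.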

S. pneumoniae Type 1 = assay: MIC, agar plate dilution method; format: cell-based; conditions: Streptococcus pneumoniae, TYPE1; 37° C., 20 hours, SDA with 5% horse blood; read-out: Antimicrobial activity (MIC)
Summary of the method: as §4

B. catarrhalis W-0500 = assay: MIC, agar plate dilution method; format: cell-based; conditions: Moraxella catarrhalis, W0500, 20 h, read-out: Antimicrobial activity (MIC), 37° C., 20 hours, SDA with 5% horse blood
Summary of the method: as §1

S. aureus M126 = assay: MIC, agar plate dilution method; format: cell-based; conditions: Staphylococcus aureus, 37° C., 20 hours, SDA with 5% horse blood, read-out: Antimicrobial activity (MIC)
Summary of the method: as §1

S. epidermidis ATCC14990 = assay: MIC, agar plate dilution method; format: cell-based; conditions: Staphylococcus epidermidis, ATCC14990, 20 h, read-out: Antimicrobial activity (MIC), 37° C., 20 hours, SDA with 5% horse blood
Summary of the method: as §1

E. faecalis W-73 = assay: MIC, agar plate dilution method; format: cell-based; conditions: Enterococcus faecalis, W73, 20 h, read-out: Antimicrobial activity (MIC)
Summary of the method: as §1

S. aureus 209P JC-1 = assay: MIC, agar plate dilution method; format: cell-based; conditions: Staphylococcus aureus, 209P, 20 h, 37° C., 20 hours, SDA with 5% horse blood; read-out: Antimicrobial activity (MIC)
Summary of the method: as §1

S. aureus M133 = assay: MIC, agar plate dilution method; format: cell-based; conditions: Staphylococcus aureus, M133, 20 h, read-out: Antimicrobial activity (MIC), 37° C., 20 hours, SDA with 5% horse blood
Summary of the method: as §1

M. luteus ATCC9341 = assay: MIC, agar plate dilution method; format: cell-based; conditions: Micrococcus luteus, ATCC9341; 37° C., 20 hours, SDA with 5% horse blood; read-out: Antimicrobial activity (MIC)
Summary of the method: as §1

S. aureus MS15009/pMS99 = assay: MIC, agar plate dilution method; format: cell-based; conditions: Staphylococcus aureus, MS15009/PMS99, 20 h, read-out: Antimicrobial activity (MIC)
Summary of the method: (§5)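 Seed cultures are prepared in STB for Staphylococcus strains and on blood agar for H. influenzae and B. catarrhalis. A 5 μl inoculum (approx. 10^6 CFU/ml) goes onto blood-supplemented agar plates, which incubate 20 hours at 37° C. before MIC determination.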

S. aureus MS15026 = assay: MIC, agar plate dilution method; format: cell-based; conditions: Staphylococcus aureus, 37° C., 20 hours, SDA with 5% horse blood, read-out: Antimicrobial activity (MIC)
Summary of the method: as §1

H. influenzae Type b = assay: MIC, agar plate dilution method; format: cell-based; conditions: Haemophilus influenzae, 20 h, read-out: Antimicrobial activity (MIC), 37° C., 20 hours, SDA with 5% horse blood
Summary of the method: as §1

S. aureus MS15009/pMS98 = assay: MIC, agar plate dilution method; format: cell-based; conditions: Staphylococcus aureus, MS15009/PMS98, 20 h, read-out: Antimicrobial activity (MIC), 37° C., 20 hours, SDA with 5% horse blood
Summary of the method: as §5

K. pneumoniae PCI602 = assay: MIC, agar plate dilution method; format: cell-based; conditions: Klebsiella pneumoniae, PCI602, 20 h, 37° C., SDA with 5% horse blood, read-out: Antimicrobial activity (MIC)
Summary of the method: as §1

B. catarrhalis W-0506 = assay: MIC, agar plate dilution method; format: cell-based; conditions: Moraxella catarrhalis, W0506; 37° C., 20 hours, SDA with 5% horse blood; read-out: Antimicrobial activity (MIC)
Summary of the method: as §1

CO[C@@H]1[C@@H](O[C@@H]2O[C@H](C)[C@@H](O[C@H]3C[C@@](C)(OC)[C@@H](OC(=O)CC(C)C)[C@H](C)O3)[C@H](N(C)C)[C@H]2O)[C@@H](CC=O)C[C@@H](C)C(=O)/C=C/C=C/C[C@@H](C)OC(=O)C[C@H]1OC(C)=O [3"-O-methylcarbomycin B]
antimicrobial activity compared with carbomycin B [1]: higher antimicrobial activity than carbomycin B

CCC(=O)O[C@H]1[C@H](C)O[C@@H](O[C@H]2[C@H](N(C)C)[C@@H](O)[C@H](O[C@H]3[C@@H](CC=O)C[C@@H](C)[C@@H](O)/C=C/C=C/C[C@@H](C)OC(=O)C[C@@H](O)[C@@H]3OC)O[C@@H]2C)C[C@@]1(C)OC [(2), 3"-O-methylleucomycin A7]
antimicrobial activities in vitro compared with corresponding compounds having free 3"-hydroxyl (MDM, LM-A7) (test strains; against most of test strains): twice as high
antimicrobial activities in comparison with rokitamycin (test strains; vs rokitamycin): generally excellent except for a Gram-negative bacterium (Branhamella catarrhalis); also recorded: slightly superior to those of rokitamycin
antimicrobial activity compared with clarithromycin (Enterococcus feacalis): comparable or slightly superior activities
antimicrobial activity compared with clarithromycin [2]: definitely superior antimicrobial activity
antimicrobial activity against Streptococcus pneumoniae (Streptococcus pneumoniae): considerably improved antimicrobial activity
antimicrobial activity compared with clarithromycin (Branhamella catarrhalis): inferior to that of clarithromycin
antimicrobial activity compared with clarithromycin (Haemophilus influenzae): comparable or slightly superior activities
antimicrobial activities (in words) [3]: strong antimicrobial activities
MIC (S. aureus MS15027): 0.2 µg/mL (≈ 0.259 µM)
MIC (S. pneumoniae IP692): < 0.025 µg/mL
MIC (S. pneumoniae Type 1): 0.05 µg/mL (≈ 0.0648 µM)
MIC (B. catarrhalis W-0500): 0.39 µg/mL (≈ 0.505 µM)
MIC (S. aureus M126): > 100 µg/mL
MIC (S. epidermidis ATCC14990): 0.2 µg/mL (≈ 0.259 µM)
MIC (E. faecalis W-73): 0.39 µg/mL (≈ 0.505 µM)
MIC (S. aureus 209P JC-1): 0.1 µg/mL (≈ 0.13 µM)
MIC (S. aureus M133): 0.2 µg/mL (≈ 0.259 µM)
MIC (M. luteus ATCC9341): < 0.025 µg/mL
MIC (S. aureus MS15009/pMS99): > 100 µg/mL
MIC (S. aureus MS15026): > 100 µg/mL
MIC (H. influenzae Type b): 6.25 µg/mL (≈ 8.1 µM)
MIC (S. aureus MS15009/pMS98): 0.2 µg/mL (≈ 0.259 µM)
MIC (K. pneumoniae PCI602): > 100 µg/mL
MIC (B. catarrhalis W-0506): 0.78 µg/mL (≈ 1.01 µM)
